Legend:
Format in all cases: binding
[1] = target: T1, SW480 colon carcinoma cells lysate proteins (Homo sapiens, UniProt P50395); details: PreyGene GDI2
T1 sequence (P50395 1-445): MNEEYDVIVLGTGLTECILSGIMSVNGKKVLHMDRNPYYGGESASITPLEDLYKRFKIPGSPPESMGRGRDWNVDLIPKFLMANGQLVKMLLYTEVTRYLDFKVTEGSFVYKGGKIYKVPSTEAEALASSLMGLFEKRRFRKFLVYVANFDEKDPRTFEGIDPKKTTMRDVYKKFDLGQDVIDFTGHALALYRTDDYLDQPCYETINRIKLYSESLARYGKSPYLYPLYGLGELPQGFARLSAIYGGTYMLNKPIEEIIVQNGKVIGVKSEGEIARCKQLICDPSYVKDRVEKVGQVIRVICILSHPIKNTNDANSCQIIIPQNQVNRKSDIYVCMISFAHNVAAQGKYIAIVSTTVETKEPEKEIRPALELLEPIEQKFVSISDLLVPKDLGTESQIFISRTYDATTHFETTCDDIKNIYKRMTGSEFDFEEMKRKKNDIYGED

[2] = target: T2, SW480 colon carcinoma cells lysate proteins (Homo sapiens, UniProt P55145); details: PreyGene MANF
T2 sequence (P55145 25-182): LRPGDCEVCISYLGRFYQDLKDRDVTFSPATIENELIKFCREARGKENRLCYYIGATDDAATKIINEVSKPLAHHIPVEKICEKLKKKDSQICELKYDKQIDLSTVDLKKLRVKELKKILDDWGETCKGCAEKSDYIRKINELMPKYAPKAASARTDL

[3] = target: SW480 colon carcinoma cells lysate proteins (Homo sapiens, UniProt P55263); details: PreyGene ADK
[4] = target: SW480 colon carcinoma cells lysate proteins (Homo sapiens, UniProt Q13885); details: PreyGene TUBB2A; SW480 cells
[5] = target: SW480 colon carcinoma cells lysate proteins (Homo sapiens, UniProt Q15365); details: PreyGene PCBP1; SW480 cells
[6] = target: T3, SW480 colon carcinoma cells lysate proteins (Homo sapiens, UniProt Q7KZF4); details: PreyGene SND1
T3 sequence (Q7KZF4 1-910): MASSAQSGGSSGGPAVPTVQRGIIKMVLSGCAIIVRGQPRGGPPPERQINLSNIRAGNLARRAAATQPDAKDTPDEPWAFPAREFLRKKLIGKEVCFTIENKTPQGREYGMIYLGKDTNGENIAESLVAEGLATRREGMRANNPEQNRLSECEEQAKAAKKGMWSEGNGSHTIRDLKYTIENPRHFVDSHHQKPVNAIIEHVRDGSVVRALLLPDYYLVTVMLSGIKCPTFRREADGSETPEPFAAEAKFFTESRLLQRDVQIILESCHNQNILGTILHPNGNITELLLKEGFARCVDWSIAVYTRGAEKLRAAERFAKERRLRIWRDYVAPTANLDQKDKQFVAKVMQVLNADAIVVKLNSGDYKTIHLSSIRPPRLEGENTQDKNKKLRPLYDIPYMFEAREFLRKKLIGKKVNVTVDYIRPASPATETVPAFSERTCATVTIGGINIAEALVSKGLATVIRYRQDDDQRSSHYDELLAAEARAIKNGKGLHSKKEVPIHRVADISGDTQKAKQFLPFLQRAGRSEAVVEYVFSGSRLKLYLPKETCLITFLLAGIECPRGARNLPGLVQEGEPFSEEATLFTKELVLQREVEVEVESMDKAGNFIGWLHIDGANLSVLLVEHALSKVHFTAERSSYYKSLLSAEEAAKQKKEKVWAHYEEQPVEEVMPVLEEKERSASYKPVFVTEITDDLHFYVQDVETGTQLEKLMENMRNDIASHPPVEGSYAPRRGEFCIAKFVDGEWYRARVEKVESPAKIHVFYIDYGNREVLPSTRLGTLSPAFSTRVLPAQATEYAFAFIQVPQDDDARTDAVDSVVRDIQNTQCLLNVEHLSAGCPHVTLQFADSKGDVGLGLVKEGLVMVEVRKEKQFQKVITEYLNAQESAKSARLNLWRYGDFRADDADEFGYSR

[7] = target: T4, SW480 colon carcinoma cells lysate proteins (Homo sapiens, UniProt Q9UJZ1); details: PreyGene STOML2; SW480 cells
T4 sequence (Q9UJZ1 29-356): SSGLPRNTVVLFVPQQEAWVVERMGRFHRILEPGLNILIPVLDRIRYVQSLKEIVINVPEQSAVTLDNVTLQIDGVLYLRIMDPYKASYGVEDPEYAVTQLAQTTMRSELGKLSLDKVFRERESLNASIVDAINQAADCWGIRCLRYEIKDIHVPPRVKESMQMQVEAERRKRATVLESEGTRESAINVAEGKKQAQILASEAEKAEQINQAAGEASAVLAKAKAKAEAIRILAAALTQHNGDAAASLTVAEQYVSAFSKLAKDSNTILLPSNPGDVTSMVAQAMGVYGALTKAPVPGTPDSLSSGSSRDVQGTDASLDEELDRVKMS

SW480 colon carcinoma cells lysate proteins (Homo sapiens, UniProt Q15365), sequence (Q15365 whole entry): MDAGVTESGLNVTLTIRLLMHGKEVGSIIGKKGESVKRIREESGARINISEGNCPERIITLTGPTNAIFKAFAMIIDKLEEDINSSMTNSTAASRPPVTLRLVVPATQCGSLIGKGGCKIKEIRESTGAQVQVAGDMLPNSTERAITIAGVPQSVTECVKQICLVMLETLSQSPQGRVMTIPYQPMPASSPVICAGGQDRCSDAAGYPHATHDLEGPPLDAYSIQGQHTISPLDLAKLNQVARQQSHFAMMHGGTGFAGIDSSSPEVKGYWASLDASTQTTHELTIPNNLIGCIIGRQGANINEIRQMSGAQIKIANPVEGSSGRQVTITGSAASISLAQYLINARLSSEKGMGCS
SW480 colon carcinoma cells lysate proteins (Homo sapiens, UniProt P55263), sequence (P55263 whole entry): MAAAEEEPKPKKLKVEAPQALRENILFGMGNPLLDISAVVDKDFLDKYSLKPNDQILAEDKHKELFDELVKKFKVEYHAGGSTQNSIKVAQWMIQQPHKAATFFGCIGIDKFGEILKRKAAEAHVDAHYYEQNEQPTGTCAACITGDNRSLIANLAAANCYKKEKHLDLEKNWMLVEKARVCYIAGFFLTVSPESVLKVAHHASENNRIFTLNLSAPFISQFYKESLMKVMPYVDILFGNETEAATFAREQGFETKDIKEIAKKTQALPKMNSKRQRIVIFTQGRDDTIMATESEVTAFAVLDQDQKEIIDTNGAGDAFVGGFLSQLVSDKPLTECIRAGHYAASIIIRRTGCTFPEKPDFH
SW480 colon carcinoma cells lysate proteins (Homo sapiens, UniProt Q13885), sequence (Q13885 whole entry): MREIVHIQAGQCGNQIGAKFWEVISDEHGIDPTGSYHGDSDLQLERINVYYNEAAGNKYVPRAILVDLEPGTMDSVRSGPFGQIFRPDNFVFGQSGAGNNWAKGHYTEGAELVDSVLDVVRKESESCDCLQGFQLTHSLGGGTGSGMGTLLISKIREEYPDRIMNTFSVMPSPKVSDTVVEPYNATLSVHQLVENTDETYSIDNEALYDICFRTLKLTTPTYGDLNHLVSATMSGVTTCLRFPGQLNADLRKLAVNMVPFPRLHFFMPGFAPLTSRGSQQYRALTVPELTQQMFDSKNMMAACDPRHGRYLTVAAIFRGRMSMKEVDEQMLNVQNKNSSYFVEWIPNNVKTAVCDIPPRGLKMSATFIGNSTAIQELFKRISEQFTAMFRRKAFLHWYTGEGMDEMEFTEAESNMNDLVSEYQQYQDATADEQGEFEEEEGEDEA

C[C@H](Oc1cc(-c2cnn(C3CCNCC3)c2)cnc1N)c1c(Cl)ccc(F)c1Cl [(5)-crizotinib]
0.4613: AvgP [3]
7: Sum (SC.Exp.) [3]
4: SC.Exp. 1-1 [1] | Sum (SC.Exp.) [1] | SC.Exp. 1-1 [3] | SC.Exp. 1-2 [4] | SC.Exp. 1-2 [7]
0.3957: AvgP [6]
2: SC.Exp. 1-1 [2] | SC.Exp. 2-1 [4] | SC.Exp. 2-2 [4] | SC.Exp. 2-1 [7] | SC.Exp. 2-2 [7]
0.1854: AvgP [1]
1: SC.Exp. 1-2 [2] | SC.Exp. 1-2 [5] | SC.Exp. Sum [5]
3: Sum (SC.Exp.) [2] | SC.Exp. 1-2 [3] | SC.Exp. 1-1 [6]
13: SC.Exp. Sum [4] | SC.Exp. Sum [7]
5: SC.Exp. 1-1 [4] | SC.Exp. 1-2 [6] | SC.Exp. 1-1 [7]
0.3221: AvgP [2]
8: Sum (SC.Exp.) [6]
0: SC.Exp. 1-2 [1] | SC.Exp. 2-1 [1] | SC.Exp. 2-2 [1] | SC.Exp. 2-1 [2] | SC.Exp. 2-2 [2] | SC.Exp. 2-1 [3] | SC.Exp. 2-2 [3] | AvgP [4] | AvgP [5] | SC.Exp. 1-1 [5] | SC.Exp. 2-1 [5] | SC.Exp. 2-2 [5] | SC.Exp. 2-1 [6] | SC.Exp. 2-2 [6] | AvgP [7]
